Data published in US20080176810A1, “Use of 3, 4', 5-Trihydroxy-Stilbene-3-Beta-D-glucoside in Prepartion of Medicines For Treating and/or Preventing Ischemic Heart Disease” (SHENZHEN NEPTUNUS PHARMACEUTICAL CO., LTD., priority 2004, published 2008).

Test system: anesthetized dogs
Assay: Myocardial oxygen consumption, coronary flow, cardiac output in anesthetized dogs, iv
Format: in vivo
Conditions: c3-c8 5,15,30,60,90,120 min after administration; for coronary artery resistance, x ± s / myocardial oxygen consumption, x ± s / total peripheral resistance (TPR), x ± s / cardiac output, x ± s / myocardial oxygen uptake, x ± s: c2 0 min before
Protocol: Isosorbide Dinitrate control group were medicated by continuous intravenous infusion and other groups by intravenous injection.
The animals were anesthetised with 3% pentobarbital sodium iv at the dose of 30 mg/kg. Tracheal intubation was performed and SC-M5 anesthesia respirator (manufactured by Shanghai Medical Instrument Factory, frequency: 16˜18 per min, tidal volume: 350˜550 ml) was connected. Bilateral femoral arteries were separated for blood sampling and analyzing and measurement of mean blood pressure. Thoracotomy at the fourth intercostal space was performed to expose the heart and to open the pericardium to make pericardial hammock. Ascending aortic root and upper part of left branch of anterior descending coronary artery were dissociated to put respectively probes of electromagnetic flowmeter (MFV-1100/1200, made by Japanese Nihon Kohden Company) to measure cardiac output and coronary artery flow rate. Right jugular vein was separated for insertion of a cardiac catheter that was guided into coronary venous sinuses before fixation. Synchronously, blood was sampled by drawing from coronary sinus and femoral artery (0.5% heparin was added for anticoagulation). pO2 and pH were detected with a blood gas analyzer (DH-1830 Blood Gas Acid-base Analyze, Nanjing Ananalysis Apparatus Factor) and the values were converted to artery and venous oxygen content. After intravenous infusion of control solvent or the drug, constant infusion for all groups was completed with an electronic constant flow pump (SH-88AB Controllable Intravenous Injector made by Quanzhou Lizhong Electronic Medical Instrument Factory). Both artery and venous blood gas before administration or 5, 15, 30, 60, 90 and 120 min after administration was analyzed and mean blood pressure and cardiac output at 0, 5, 15, 30, 60, 90 and 120 min were observed.
Myocardial oxygen consumption(ml/min/100 g)=coronary flow ml/min/100 g×artery oxygen−coronary sinus oxygen ml %).
Myocardial oxygen uptake (%)=(artery oxygen ml %−coronary sinus oxygen ml %)/artery oxygen ml %
Total peripheral resistance of general circulation(dyn·s·cm−5)=mean arterial blood pressure[MAP(KPa)]×80/cardiac output[CO(L/min)]=mean arterial blood pressure[MAP(mmHg)]×10.6/cardiac output[CO(L/min)]
Coronary resistance[Kpa/ml/min]=mean arterial blood pressure[MAP(KPa)]/coronary artery flow.

[1] = TSG 2.5 mg/kg iv, 0 min, before administration
[2] = TSG 2.5 mg/kg iv, 5 min after administration
[3] = TSG 2.5 mg/kg iv, 15 min after administration
[4] = TSG 2.5 mg/kg iv, 30 min after administration
[5] = TSG 2.5 mg/kg iv, 60 min after administration
[6] = TSG 2.5 mg/kg iv, 90 min after administration
[7] = TSG 2.5 mg/kg iv, 120 min after administration
[8] = TSG 2.5 mg/kg iv, before administration, 0 min
[9] = TSG 5 mg/kg iv, 0 min, before administration
[10] = TSG 5 mg/kg iv, 5 min after administration
[11] = TSG 5 mg/kg iv, 15 min after administration
[12] = TSG 5 mg/kg iv, 30 min after administration
[13] = TSG 5 mg/kg iv, 60 min after administration
[14] = TSG 5 mg/kg iv, 90 min after administration
[15] = TSG 5 mg/kg iv, 120 min after administration

Substance: 3,4′,5-trihydroxy-stilbene-3-β-D-glucoside [TSG]
- coronary artery resistance, x ± s [1]: 0.268 ± 0.050 Kpa/ml/min
- myocardial oxygen consumption, x ± s [1]: 214.6 ± 5.24 mL/min.100 g^−1
- total peripheral resistance (TPR), x ± s [1]: 888.8 ± 200.9 dyn·s·cm^−5
- cardiac output, x ± s [2]: 1.09 ± 0.12 L/min
- coronary artery resistance, x ± s [2]: 0.269 Kpa/ml/min
- myocardial oxygen consumption, x ± s [2]: 215.5 ± 8.73 mL/min.100 g^−1
- myocardial oxygen uptake, x ± s [2]: 77.4%
- total peripheral resistance (TPR), x ± s [2]: 873.5 ± 210.3 dyn·s·cm^−5
- cardiac output, x ± s [3]: 1.09 ± 0.14 L/min
- coronary artery resistance, x ± s [3]: 0.266 ± 0.049 Kpa/ml/min
- total peripheral resistance (TPR), x ± s [3]: 888.7 ± 208.8 dyn·s·cm^−5
- cardiac output, x ± s [4]: 1.10 ± 0.13 L/min
- coronary artery resistance, x ± s [4]: 0.257 ± 0.054 Kpa/ml/min
- myocardial oxygen consumption, x ± s [4]: 218.2 ± 6.85 mL/min.100 g^−1
- myocardial oxygen uptake, x ± s [4]: 74.2 ± 5.11%
- total peripheral resistance (TPR), x ± s [4]: 869.1 ± 249.3 dyn·s·cm^−5
- cardiac output, x ± s [5]: 1.11 ± 0.13 L/min
- coronary artery resistance, x ± s [5]: 0.261 ± 0.051 Kpa/ml/min
- myocardial oxygen consumption, x ± s [5]: 218.0 ± 8.95 mL/min.100 g^−1
- myocardial oxygen uptake, x ± s [5]: 73.1 ± 6.16%
- total peripheral resistance (TPR), x ± s [5]: 890.2 ± 240.3 dyn·s·cm^−5
- coronary artery resistance, x ± s [6]: 0.267 ± 0.054 Kpa/ml/min
- myocardial oxygen consumption, x ± s [6]: 214.1 ± 8.39 mL/min.100 g^−1
- myocardial oxygen uptake, x ± s [6]: 75.0 ± 6.24%
- total peripheral resistance (TPR), x ± s [6]: 877.6 ± 225.1 dyn·s·cm^−5
- cardiac output, x ± s [7]: 1.10 ± 0.14 L/min
- coronary artery resistance, x ± s [7]: 0.271 ± 0.055 Kpa/ml/min
- total peripheral resistance (TPR), x ± s [7]: 868.6 ± 221.8 dyn·s·cm^−5
- cardiac output, x ± s [8]: 1.06 ± 0.13 L/min
- myocardial oxygen uptake, x ± s [8]: 76.9 ± 5.50%
- cardiac output, variation % [2]: 2.50 ± 2.42%
- coronary artery resistance, variation % [2]: 0.81%
- myocardial oxygen consumption, variation % [2]: 0.40 ± 3.16%
- myocardial oxygen uptake, variation % [2]: 0.72%
- total peripheral resistance (TPR), variation % [2]: −1.89 ± 6.74%
- cardiac output, variation % [3]: 1.97 ± 1.55%
- coronary artery resistance, variation % [3]: −0.34 ± 2.36%
- total peripheral resistance (TPR), variation % [3]: −0.10 ± 4.21%
- cardiac output, variation % [4]: 3.88 ± 3.48%
- coronary artery resistance, variation % [4]: −3.82 ± 9.83%
- myocardial oxygen consumption, variation % [4]: 1.66 ± 1.48%
- myocardial oxygen uptake, variation % [4]: −3.47 ± 1.59%
- total peripheral resistance (TPR), variation % [4]: −3.22 ± 9.65%
- cardiac output, variation % [5]: 4.41 ± 1.40%
- coronary artery resistance, variation % [5]: −2.48 ± 8.17%
- myocardial oxygen consumption, variation % [5]: 1.57 ± 2.94%
- myocardial oxygen uptake, variation % [5]: −4.99 ± 3.01 %
- total peripheral resistance (TPR), variation % [5]: −0.56 ± 7.52%
- cardiac output, variation % [6]: 4.40 ± 1.64%
- coronary artery resistance, variation % [6]: −0.24 ± 10.72%
- myocardial oxygen consumption, variation % [6]: −0.25 ± 2.84%
- myocardial oxygen uptake, variation % [6]: −2.58 ± 2.67 %
- total peripheral resistance (TPR), variation % [6]: −1.52 ± 9.42%
- cardiac output, variation % [7]: 3.23 ± 2.57%
- coronary artery resistance, variation % [7]: 1.19 ± 6.55%
- total peripheral resistance (TPR), variation % [7]: −2.58 ± 7.26%
- coronary artery resistance, x ± s [9]: 0.299 ± 0.029 Kpa/ml/min
- myocardial oxygen consumption, x ± s [9]: 211.4 ± 4.05 mL/min.100 g^−1
- total peripheral resistance (TPR), x ± s [9]: 906.3 ± 193.9 dyn·s·cm^−5
- cardiac output, x ± s [10]: 1.13 ± 0.12 L/min
- coronary artery resistance, x ± s [10]: 0.308 Kpa/ml/min
- myocardial oxygen consumption, x ± s [10]: 210.4 ± 6.48 mL/min.100 g^−1
- myocardial oxygen uptake, x ± s [10]: 79.6%
- total peripheral resistance (TPR), x ± s [10]: 897.1 ± 184.7 dyn·s·cm^−5
- cardiac output, x ± s [11]: 1.13 ± 0.13 L/min
- coronary artery resistance, x ± s [11]: 0.305 ± 0.029 Kpa/ml/min
- total peripheral resistance (TPR), x ± s [11]: 916.6 ± 186.2 dyn·s·cm^−5
- cardiac output, x ± s [12]: 1.15 ± 0.14 L/min
- coronary artery resistance, x ± s [12]: 0.299 ± 0.026 Kpa/ml/min
- myocardial oxygen consumption, x ± s [12]: 210.2 ± 8.65 mL/min.100 g^−1
- myocardial oxygen uptake, x ± s [12]: 74.8 ± 5.66%
- total peripheral resistance (TPR), x ± s [12]: 915.2 ± 199.9 dyn·s·cm^−5
- cardiac output, x ± s [13]: 1.16 ± 0.14 L/min
- coronary artery resistance, x ± s [13]: 0.288 ± 0.026 Kpa/ml/min
- myocardial oxygen consumption, x ± s [13]: 212.9 ± 7.2 mL/min.100 g^−1
- myocardial oxygen uptake, x ± s [13]: 74.5 ± 6.05%
- total peripheral resistance (TPR), x ± s [13]: 907.8 ± 194.0 dyn·s·cm^−5
- cardiac output, x ± s [14]: 1.16 ± 0.13 L/min
- coronary artery resistance, x ± s [14]: 0.287 ± 0.028 Kpa/ml/min
- myocardial oxygen consumption, x ± s [14]: 209.6 ± 9.01 mL/min.100 g^−1
- myocardial oxygen uptake, x ± s [14]: 75.1 ± 6.48%
- total peripheral resistance (TPR), x ± s [14]: 891.7 ± 188.6 dyn·s·cm^−5
- cardiac output, x ± s [15]: 1.14 ± 0.13 L/min
- coronary artery resistance, x ± s [15]: 0.287 ± 0.031 Kpa/ml/min
- total peripheral resistance (TPR), x ± s [15]: 881.8 ± 188.9 dyn·s·cm^−5
